Test results published in patent publication US20040266623A1, “SYNERGISTIC QUINCLORAC HERBICIDAL COMPOSITIONS” (priority 2003, published 2004).

Columns and labels:
Assay in all cases: Greenhouse pot test, postemergent spray, visual control rating converted to percent control
Type in all cases: in vivo
[1] = test system: dandelion
Procedure: (§1) Pots of crabgrass, dandelion, white clover, and plantain grown in greenhouse soiless growth media were sprayed with a greenhouse pot sprayer at 43.46 gallons of spray solution/acre and allowed to stand in the greenhouse. Visual observation of the effects made by the herbicidal compositions on the plants in the test pots was recorded for control of crabgrass, dandelion, clover and plantain at 24 hours after treatment (HAT), 48 hours after treatment (HAT), 72 hours after treatment (HAT), 7 days after treatment (DAT), 14 days after treatment (DAT) and 21 days after treatment (DAT). A control rating scale of 1 to 9 was used to record the visual observation of the effect of the herbicidal composition on the plants over the time period of the tests. 1=no control, and 9=death of plant, with intervening numbers representing successive degrees of observed effectiveness of the herbicidal composition over time. The 1-9 control rating scale was converted to percent control in the test data charts that follow.
(§2) The test protocol of S. R. Colby as set out in his article entitled “Calculating Synergistic and Antagonistic Responses of Herbicide Compositions,” received for publication Apr. 11, 1966, Contribution No. 3796 and Scientific Article No. 1271 of the Maryland Agricultural Experiment Station, Department pf Agronomy, University of Maryland was followed to evaluate the synergistic properties of the combination of quinclorac plus a herbicidal protox inhibitor, and a combination of quinclorac, plus a herbicidal protox inhibitor plus a herbicidal auxinic agent as compared with the individual herbicides, using Colby's formulas E=X+Y−XY/100 for a two herbicide combination, where E=the expected percent of inhibition of growth by herbicides, X=the percent inhibition of growth by herbicide A at p lb/A, and Y=the percent inhibition of growth by herbicide B at q lb/A, for a given combination of two herbicides. Colby's formula E=X+Y+Z−(XY+XZ+YZ)/100+XYZ/10,000, was used for the three-way herbicide combination evaluation, where E, X and Y are the same as in the two herbicide formula and Z=the percent inhibition of growth by the third herbicide.

[2] = test system: crabgrass
Procedure: as §1, §2

[3] = test system: plantain; conditions: for Control (1-9) Plantain: scale 1=no control, 9=death of plant
Procedure: as §1, §2

[4] = test system: white clover
Procedure: as §1, §2

[5] = Test 3, 7 DAT, scale 1=no control, 9=death of plant
[6] = Test 3, 14 DAT, scale 1=no control, 9=death of plant
[7] = Test 3, 21 DAT, scale 1=no control, 9=death of plant
[8] = Test 3, 24 HAT, scale 1=no control, 9=death of plant
[9] = Test 3, 72 HAT, scale 1=no control, 9=death of plant
[10] = Test 4, 24 HAT, scale 1=no control, 9=death of plant
[11] = Test 4, 72 HAT, scale 1=no control, 9=death of plant

Cc1cc(Cl)ccc1OCC(=O)OCCCCCC(C)C [MCPA IOE @ 1.10 lbs/A]
44.4%: % Control Crabgrass ([2]; Test 3, 21 DAT) | % Control Plantain ([3]; Test 3, 24 HAT) | % Control Plantain ([3]; Test 3, 72 HAT) | % Control Plantain ([3]; Test 4, 72 HAT) | % Control Clover ([4]; Test 3, 24 HAT) | % Control Clover ([4]; Test 3, 72 HAT) | % Control Clover ([4]; Test 4, 24 HAT)
55.6%: % Control Dandelion ([1]; Test 3, 72 HAT) | % Control Dandelion ([1]; Test 4, 72 HAT) | % Control Clover ([4]; Test 4, 72 HAT)
8: Control (1-9) Dandelion [1, 7] | Control (1-9) Clover [4, 6]
22.2%: % Control Crabgrass ([2]; Test 3, 14 DAT) | % Control Plantain ([3]; Test 4, 24 HAT)
77.8%: % Control Dandelion ([1]; Test 3, 14 DAT) | % Control Plantain ([3]; Test 3, 14 DAT) | % Control Plantain ([3]; Test 3, 21 DAT)
2: Control (1-9) Crabgrass [2, 6] | Control (1-9) Plantain ([3]; Test 4, 24 HAT)
66.7%: % Control Dandelion ([1]; Test 3, 7 DAT) | % Control Plantain ([3]; Test 3, 7 DAT) | % Control Clover ([4]; Test 3, 7 DAT)
6: Control (1-9) Dandelion [1, 5] | Control (1-9) Plantain ([3]; Test 3, 7 DAT) | Control (1-9) Clover [4, 5]
11.1%: % Control Crabgrass ([2]; Test 3, 7 DAT) | % Control Crabgrass ([2]; Test 3, 24 HAT) | % Control Crabgrass ([2]; Test 3, 72 HAT) | % Control Crabgrass ([2]; Test 4, 24 HAT) | % Control Crabgrass ([2]; Test 4, 72 HAT)
1: Control (1-9) Crabgrass [2, 5] | Control (1-9) Crabgrass [2, 8] | Control (1-9) Crabgrass [2, 9] | Control (1-9) Crabgrass [2, 10] | Control (1-9) Crabgrass [2, 11]
100.0%: % Control Clover ([4]; Test 3, 21 DAT)
3: Control (1-9) Dandelion [1, 8] | Control (1-9) Dandelion [1, 10]
88.9%: % Control Dandelion ([1]; Test 3, 21 DAT) | % Control Clover ([4]; Test 3, 14 DAT)
4: Control (1-9) Crabgrass [2, 7] | Control (1-9) Plantain ([3]; Test 3, 24 HAT) | Control (1-9) Plantain ([3]; Test 3, 72 HAT) | Control (1-9) Plantain ([3]; Test 4, 72 HAT) | Control (1-9) Clover [4, 8] | Control (1-9) Clover [4, 9] | Control (1-9) Clover [4, 10]
9: Control (1-9) Clover [4, 7]
5: Control (1-9) Dandelion [1, 9] | Control (1-9) Dandelion [1, 11] | Control (1-9) Clover [4, 11]
7: Control (1-9) Dandelion [1, 6] | Control (1-9) Plantain ([3]; Test 3, 14 DAT) | Control (1-9) Plantain ([3]; Test 3, 21 DAT)
33.3%: % Control Dandelion ([1]; Test 3, 24 HAT) | % Control Dandelion ([1]; Test 4, 24 HAT)

Cc1nn(-c2cc(NS(C)(=O)=O)c(Cl)cc2Cl)c(=O)n1C(F)F [Sulfentrazone, reference compound]
4: Control (1-9) Dandelion ([1]; Test 2, 72 HAT, 0.02 lbs/A) | Control (1-9) Dandelion ([1]; Test 2, 72 HAT, 0.03 lbs/A) | Control (1-9) Crabgrass ([2]; Test 2, 24 HAT, 0.03 lbs/A)
88.9%: % Control Dandelion ([1]; Test 2, 7 DAT, 0.02 lbs/A) | % Control Dandelion ([1]; Test 2, 7 DAT, 0.03 lbs/A) | % Control Dandelion ([1]; Test 2, 14 DAT, 0.02 lbs/A) | % Control Dandelion ([1]; Test 2, 14 DAT, 0.03 lbs/A)
22.2%: % Control Dandelion ([1]; Test 2, 24 HAT, 0.02 lbs/A) | % Control Dandelion ([1]; Test 2, 24 HAT, 0.03 lbs/A) | % Control Crabgrass ([2]; Test 2, 7 DAT, 0.02 lbs/A) | % Control Crabgrass ([2]; Test 2, 7 DAT, 0.03 lbs/A) | % Control Crabgrass ([2]; Test 2, 14 DAT, 0.02 lbs/A) | % Control Crabgrass ([2]; Test 2, 14 DAT, 0.03 lbs/A) | % Control Clover ([4]; Test 2, 24 HAT, 0.02 lbs/A) | % Control Clover ([4]; Test 2, 24 HAT, 0.03 lbs/A) | % Control Clover ([4]; Test 2, 72 HAT, 0.03 lbs/A)
5: Control (1-9) Clover ([4]; Test 2, 7 DAT, 0.03 lbs/A)
33.3%: % Control Crabgrass ([2]; Test 2, 24 HAT, 0.02 lbs/A) | % Control Crabgrass ([2]; Test 2, 72 HAT, 0.02 lbs/A) | % Control Crabgrass ([2]; Test 2, 72 HAT, 0.03 lbs/A) | % Control Clover ([4]; Test 2, 72 HAT, 0.02 lbs/A)
3: Control (1-9) Crabgrass ([2]; Test 2, 24 HAT, 0.02 lbs/A) | Control (1-9) Crabgrass ([2]; Test 2, 72 HAT, 0.02 lbs/A) | Control (1-9) Crabgrass ([2]; Test 2, 72 HAT, 0.03 lbs/A) | Control (1-9) Clover ([4]; Test 2, 72 HAT, 0.02 lbs/A)
55.6%: % Control Clover ([4]; Test 2, 7 DAT, 0.03 lbs/A)
77.8%: % Control Clover ([4]; Test 2, 7 DAT, 0.02 lbs/A) | % Control Clover ([4]; Test 2, 14 DAT, 0.02 lbs/A)
6: Control (1-9) Clover ([4]; Test 2, 14 DAT, 0.03 lbs/A)
8: Control (1-9) Dandelion ([1]; Test 2, 7 DAT, 0.02 lbs/A) | Control (1-9) Dandelion ([1]; Test 2, 7 DAT, 0.03 lbs/A) | Control (1-9) Dandelion ([1]; Test 2, 14 DAT, 0.02 lbs/A) | Control (1-9) Dandelion ([1]; Test 2, 14 DAT, 0.03 lbs/A)
44.4%: % Control Dandelion ([1]; Test 2, 72 HAT, 0.02 lbs/A) | % Control Dandelion ([1]; Test 2, 72 HAT, 0.03 lbs/A) | % Control Crabgrass ([2]; Test 2, 24 HAT, 0.03 lbs/A)
7: Control (1-9) Clover ([4]; Test 2, 7 DAT, 0.02 lbs/A) | Control (1-9) Clover ([4]; Test 2, 14 DAT, 0.02 lbs/A)
66.7%: % Control Clover ([4]; Test 2, 14 DAT, 0.03 lbs/A)
2: Control (1-9) Dandelion ([1]; Test 2, 24 HAT, 0.02 lbs/A) | Control (1-9) Dandelion ([1]; Test 2, 24 HAT, 0.03 lbs/A) | Control (1-9) Crabgrass ([2]; Test 2, 7 DAT, 0.02 lbs/A) | Control (1-9) Crabgrass ([2]; Test 2, 7 DAT, 0.03 lbs/A) | Control (1-9) Crabgrass ([2]; Test 2, 14 DAT, 0.02 lbs/A) | Control (1-9) Crabgrass ([2]; Test 2, 14 DAT, 0.03 lbs/A) | Control (1-9) Clover ([4]; Test 2, 24 HAT, 0.02 lbs/A) | Control (1-9) Clover ([4]; Test 2, 24 HAT, 0.03 lbs/A) | Control (1-9) Clover ([4]; Test 2, 72 HAT, 0.03 lbs/A)
